We go through 13 compounds from patent publication US5856350A, “3-phenyl-1,4-dialkyl-1,2,4-triazolium salts and their use as antidepressants” (Hoechst Marion Roussel, Inc., priority 1996, dated 1999).

Like-named read-outs stand apart in the source and are kept apart here.

Data set [1] concerns Ro 4-1284-induced hypothermia. As to the kind of experiment: Antagonism to Ro 4-1284-induced hypothermia. The data set is classed as in vivo. To be noted: male mice, Ro 4-1284 20 mg/kg i.p.; for ED50: Mus musculus, ip. The method, then:
Another assay utilized to evaluate antidepressant activity is testing for the antagonism to Ro 4-1284*--induced hypothermia. (*Niemegeers, Carlos, J. E. "Antagonism of Reserpine--Like Activity", edited by S. Fielding and Lal, published by Futura, pg. 73-98.) In this test, groups of male mice are weighed and housed individually in wire mesh cages. The rectal temperature of each mouse is recorded and the test compound or vehicle is then administered. […] Mice are then placed in a cold room (36° F.) for 30 minutes, and then returned to room temperature for 30 minutes. At this time (60 minutes after Ro 4-1284 administration) the rectal temperature of each mouse is again recorded. […] The final temperatures of control groups of ten Ro 4-1284-treated mice from a number of experiments are combined to form an "historic control" of 100 mice. This control is updated periodically by replacement of the oldest data.

The nature of the next data set: LD50. As to conditions: in vivo; Table I; species and route not given. An excerpt:
The results of testing a number of compounds of formula I for the effects summarized above, as well as their LD50, are summarized in Table I.

A further data set deals with reserpine-induced ptosis. The experiment in a line: Prevention of reserpine-induced ptosis in mice. The data set is classed as in vivo. To be noted: Mus musculus, iv, reserpine 2 mg/kg i.v. The method, then:
In this assay, test groups of weighed mice are housed individually in wire mesh cages and administered test compound or vehicle. At a selected time thereafter, reserpine is administered as a 0.2 mg/ml solution in dilute acetic acid at a dose of 2 mg/kg intravenously into a tail vein. In each assay the animals are examined individually in a Plexiglas® cylinder 90 minutes later. Prevention or delay in ptosis is considered significant if the average closure of both eyes is less than 50% after observing for 30 seconds.

Data set [2] is described as follows: Metabolite identification in the urine of test animals.
Data set [3] concerns depression; neurodegeneration. As to conditions: prior art compound; cited from earlier work.
The mark [4] stands for this setting: 1 h, 60 minute pre-treatment time, i.p., read-out: ED50 for antagonism of Ro 4-1284-induced hypothermia.
[5] abbreviates: Table I, two determinations listed separately where marked *, read-out: Ro 4-1284 Induced Hypothermia ED50.
Setting [6] is: Table I, pre-treatment time and route of test compound not given, read-out: Reserpine-Induced Ptosis ED50.
Where [7] appears, read: 1 h, 60 minute pre-treatment time, read-out: ED50 for prevention of reserpine-induced ptosis.

Broadly, the ED50 is the dose at which the effect has come halfway, by size or by number of responders. In the case of `CC(Cc1ccccc1)NN` (stereo not drawn) [catron, reference compound], the 50% effective dose (ED50) in data set [1] (setting [4]) turned out to be 0.7 mg/kg.
One may read the LD50 as the dose expected to kill half of the subjects tested. A low value points to greater toxicity. `Cn1c[n+](C)nc1-c1ccccc1F` [Rn 2-F--]: the ED50 in data set [1] (setting [5]) worked out at 0.74 mg/kg; with reserpine-induced ptosis (setting [6]) it was 0.28 mg/kg. The “Ro 4-1284 Induced Hypothermia ED50” value in data set [1] (Table I, two determinations listed separately where marked *, 20 mg/kg) came to 0.58 mg/kg. Further, the LD50 in the data set “LD50” is 100 to 200 mg/kg.
Take `CN(C)CCCN1c2ccccc2CCc2ccccc21` [imipramine, reference compound]: the values for the ED50 (in data set [1] (setting [4]); in the data set on reserpine-induced ptosis (setting [7])) were 1.8 mg/kg and 4.89 mg/kg, respectively.
`Cn1c[n+](C)nc1-c1ccc(I)cc1` [Rn 4-I--]: the ED50 was more than 6.25 mg/kg in data set [1] (setting [5]) and 2.82 mg/kg in the data set on reserpine-induced ptosis (setting [6]). The compound further gave an LD50 in “LD50” of 100 to 200 mg/kg.
With `Cn1c[n+](C)nc1-c1cccc(F)c1` [3-(3-fluorophenyl)-1,4-dimethyl-1,2,4-triazolium ion], in data set [2], the “urinary metabolite of 5-(3-fluorophenyl)-2,4-dimethyl-3H-1,2,4-triazole-3-thione” value is “identified in the urine of test animals as a metabolite”.
Take `Cn1c[n+](C)nc1-c1cccc(F)c1` [Rn 3-F--, 3-(3-Fluorophenyl)-1,4-dimethyl-1,2,4-triazolium hydrosulfate]: the ED50 came out at 0.34 mg/kg in data set [1] (setting [4]), 0.34 mg/kg in data set [1] (setting [5]) and 0.19 mg/kg in the data set with reserpine-induced ptosis (setting [6]). In “LD50”, this compound yielded an LD50 of 200 to 400 mg/kg.
As for `COc1ccccc1-c1n[n+](C)cn1C` [2-CH3 O--], the ED50 in data set [1] (setting [5]) is more than 3.12 mg/kg; in the data set with reserpine-induced ptosis (setting [6]), more than 12.5 mg/kg. The compound also came in with a 50% lethal dose (LD50) in the data set “LD50” of 50 to 100 mg/kg.
For `Cn1nc(-c2cccc(F)c2)n(C)c1=S` [5-(3-fluorophenyl)-2,4-dimethyl-3H-1,2,4-triazole-3-thione], in data set [3], the “known antidepressant and neuroprotective activity” value is recorded as “antidepressant activity as well as activity in tests indicative of protection from neurodegeneration”.
For the compound `CNCCCN1c2ccccc2CCc2ccccc21` [desipramine, reference compound], the 50% effective dose (ED50) in data set [1] (setting [4]) was determined as 0.1 mg/kg.
Consider `Cn1c[n+](C)nc1-c1ccc(Br)cc1` [Rn 4-Br--], for which the values for the ED50 (in data set [1] (setting [5]); with reserpine-induced ptosis (setting [6])) were 0.81 mg/kg and 0.23 mg/kg, respectively. The compound also yielded an LD50 in “LD50” of 200 to 400 mg/kg.
Taken in the same sequence, the figures for `Cn1c[n+](C)nc1-c1c(F)cccc1F` [2,6-F2 --] were 0.58 mg/kg, 5.34 mg/kg and 100 to 200 mg/kg.
On to `Cn1c[n+](C)nc1-c1ccc(Cl)cc1` [Rn 4-Cl--, 3-(4-chlorophenyl)-1,4-dimethyl-1,2,4-triazolium hydrosulfate], for which the results for the ED50 (in data set [1] (setting [5]); with reserpine-induced ptosis (setting [7]); with reserpine-induced ptosis (setting [6])) were 0.51 mg/kg, 0.09 mg/kg and 0.09 mg/kg, respectively. In the data set “LD50”, this compound displayed an LD50 of 100 to 200 mg/kg.
With `COc1c(F)cccc1-c1n[n+](C)cn1C` [3-F-2-CH3 O--], the ED50 turned out to be 2 mg/kg in data set [1] (setting [5]) and 1.31 mg/kg in the data set on reserpine-induced ptosis (setting [6]). In addition, the LD50 in “LD50” lay within 100 to 200 mg/kg.
